Data as given in article PMC8868297, “Stapling of Peptides Potentiates the Antibiotic Treatment of Acinetobacter baumannii In Vivo” (Antibiotics, 2022).
Where two headings read alike, the source gives them in different places.

Tests used:
A. baumannii 1757 [1] = assay: Zebrafish larvae infection model; conditions: rifampicin / erythromycin experiment (Table S8); infected larvae, caudal vein injection, five days post infection; mean of three independent experiments
Description: Transparent Casper zebrafish (Danio rerio) larvae were infected and treated according to protocols described by Van der Sar et al. and Bernard et al. [43, 44]. In short, zebrafish larvae collected from a laboratory-breeding colony kept at 24 °C and a 12:12 h dark/light regime. Larvae were selected based on morphology according to hours post fertilization (hpf) and kept at 28 °C. All protocols followed the international guidelines on the protection of animals used for scientific purposes specified by the EU Directive 2010/63/EU, which allows zebrafish larvae to be used up to the moment of free-living (5–7 dpf). Larvae were dechorionated at 28 hpf and anaesthetized in 0.2% tricaine methanesulfonate (MS222, Fluka A-5040). Larvae were individually infected with 1 nL, containing approximately 100–150 CFU (1–1.5 CFU/mL), of Gram-negative bacteria via microinjection of the caudal vein as described previously [33]. One hour post infection, larvae were treated with cationic (stapled) peptides, antibiotics or a combination of the two via another microinjection of 1 nL in the caudal vein. […] Zebrafish larvae were kept at 30 °C throughout the experiment and survival of the larvae, based on heartbeat, was determined every 24 h for 5 days.

E. coli gsk12 = assay: MIC / checkerboard synergy assay; assay type: cell-based, Escherichia coli
Description: (§1) Minimum inhibitory concentrations of the peptides and antibiotics were determined according to the protocol described by Wiegand et al.. Briefly, two-fold dilution series of cationic peptides in 50 µL volume of LB broth containing 2% DMSO were made in polypropylene 96-well microtiter plates (Ratiolab, L6018123, Dreieich, Germany). The optical density at 600 nm (OD600) of growing bacterial cultures was followed, and at mid-log-phase (OD600 ~0.4–0.5) cultures were diluted to OD600 0.02 and 50 µL was added to the wells, resulting in a total volume of 100 µl, an OD600 of ~0.01 and a DMSO concentration of 1%. An OD600 of ~0.01 accounted for approximately 3 × 10^8 colony forming units per mL (CFU/mL) for A. baumannii, 1 × 10^7 CFU/mL for E. coli and 5 × 10^7 CFU/mL for K. pneumoniae as determined by plate counting.
(§2) In a similar manner, two-fold dilution series of antibiotics were made in polystyrene microtiter plates (Costar, REF3779, Corning NY, United States) in 70 µL volume of LB broth. […] Mid-log phase cultures were diluted to OD600 0.1 and 10 µL culture was added to each well of the microtiter plate, resulting in a total volume of 110 µL and an OD600 of ~0.01 (~3 × 10^8 CFU/mL), and the OD600 was measured every 15 min for 12 h using the microplate reader. First, the MIC values of the antibiotics alone and the MIC values of the peptides alone were determined as described previously. […]

E. coli 31 = assay: MIC / checkerboard synergy assay; assay type: cell-based; conditions: Escherichia coli, 31, 12 h; read-out: MIC (compound alone)
Description: as §1, §2

A. baumannii 1757 [2] = assay: MIC / checkerboard synergy assay (also with added LPS); assay type: cell-based, Acinetobacter baumannii
Description: as §1
(§3) In a similar manner, two-fold dilution series of antibiotics were made in polystyrene microtiter plates (Costar, REF3779, Corning NY, United States) in 70 µL volume of LB broth. Then, 50 µL of the antibiotic series was transferred to the peptide containing polypropylene plate, resulting in a checkerboard titration of a peptide on the vertical axis and an antibiotic on the horizontal axis. To some checkerboard assays 15 µg/mL isolated smooth (sm) LPS (from E. coli O55:B5, Sigma-Aldrich, L2880), rough (Ra) LPS (from E. coli EH100, Sigma-Aldrich, L9641) or deep rough (Rd) LPS (from E. coli F583, Sigma-Aldrich, L6893) LPS was added to the LB broth. Mid-log phase cultures were diluted to OD600 0.1 and 10 µL culture was added to each well of the microtiter plate, resulting in a total volume of 110 µL and an OD600 of ~0.01 (~3 × 10^8 CFU/mL), and the OD600 was measured every 15 min for 12 h using the microplate reader. First, the MIC values of the antibiotics alone and the MIC values of the peptides alone were determined as described previously. Similarly, the MIC values of the antibiotics in combination with the different peptides and the MIC values of the peptides in combination with the antibiotics were determined (the fractional inhibitory concentrations (FIC)). […] An FICindex between 0.5 and 1 was considered to be an additive effect.

A. baumannii 1681 = assay: MIC / checkerboard synergy assay; assay type: cell-based, Acinetobacter baumannii; conditions: Acinetobacter baumannii, 1681, 12 h; read-out: MIC (compound alone)
Description: as §1, §3

A. baumannii 2196 = assay: MIC / checkerboard synergy assay; assay type: cell-based, Acinetobacter baumannii; conditions: Acinetobacter baumannii, 2196, 12 h; read-out: MIC (compound alone)
Description: as §1, §3

K. pneumoniae 613 = assay: MIC / checkerboard synergy assay; assay type: cell-based, Klebsiella pneumoniae; conditions: Klebsiella pneumoniae, 613, 12 h; read-out: MIC (compound alone)
Description: as §1, §3

K. pneumoniae 821 = assay: MIC / checkerboard synergy assay; assay type: cell-based, Klebsiella pneumoniae; conditions: Klebsiella pneumoniae, 821, 12 h; read-out: MIC (compound alone)
Description: as §1, §3

K. pneumoniae 94 = assay: MIC / checkerboard synergy assay; assay type: cell-based, Klebsiella pneumoniae; conditions: Klebsiella pneumoniae, 94, 12 h; read-out: MIC (compound alone)
Description: as §1, §3

zebrafish larvae = assay: Toxicity in zebrafish larvae (survival after caudal vein injection); conditions: survival of uninfected larvae vs vehicle (50% DMSO), five days
Description: Transparent Casper zebrafish (Danio rerio) larvae were infected and treated according to protocols described by Van der Sar et al. and Bernard et al. [43, 44]. In short, zebrafish larvae collected from a laboratory-breeding colony kept at 24 °C and a 12:12 h dark/light regime. Larvae were selected based on morphology according to hours post fertilization (hpf) and kept at 28 °C. All protocols followed the international guidelines on the protection of animals used for scientific purposes specified by the EU Directive 2010/63/EU, which allows zebrafish larvae to be used up to the moment of free-living (5–7 dpf). Larvae were dechorionated at 28 hpf and anaesthetized in 0.2% tricaine methanesulfonate (MS222, Fluka A-5040). Larvae were individually infected with 1 nL, containing approximately 100–150 CFU (1–1.5 CFU/mL), of Gram-negative bacteria via microinjection of the caudal vein as described previously [33]. One hour post infection, larvae were treated with cationic (stapled) peptides, antibiotics or a combination of the two via another microinjection of 1 nL in the caudal vein. To correct dilution of the treatment upon injection in the vein (1 nL in 250 nL zebrafish larvae volume), treatments were diluted in 0.1% phenol red (Sigma-Aldrich, p-0290) in phosphate buffered saline (PBS) to 250 times the concentration as tested in vitro. Zebrafish larvae were kept at 30 °C throughout the experiment and survival of the larvae, based on heartbeat, was determined every 24 h for 5 days.

Row | SMILES | Survival (%) (A. baumannii 1757 [1]) | MIC (E. coli gsk12; Escherichia coli, GSK12, 12 h, read-out: MIC (compound alone)) [µM] | MIC (compound alone) (E. coli gsk12; compound alone, LB broth, MIC = 90% of growth prevented, OD600 over 12 h, mean ± SD) [µM] | MIC (E. coli 31) [µM] | MIC (A. baumannii 1757 [2]; Acinetobacter baumannii, 1757, 12 h, read-out: MIC (compound alone)) [µM] | MIC (A. baumannii 1757 [2]; Acinetobacter baumannii, 1757, LB medium with soluble deep rough LPS 15 µg/ml, mean ± SD, read-out: MIC, + Rd-LPS (F583)) [µM] | MIC (A. baumannii 1757 [2]; Acinetobacter baumannii, 1757, LB medium with soluble rough LPS 15 µg/ml, mean ± SD, read-out: MIC, + Ra-LPS (EH100)) [µM] | MIC (A. baumannii 1757 [2]; Acinetobacter baumannii, 1757, LB medium with soluble smooth LPS 15 µg/ml, mean ± SD, read-out: MIC, + Sm-LPS (055:B5)) [µM] | MIC (A. baumannii 1757 [2]; Acinetobacter baumannii, 1757, LB medium without supplement (Table S4), mean ± SD, read-out: MIC, No supplement) [µM] | MIC (A. baumannii 1681) [µM] | MIC (A. baumannii 2196) [µM] | MIC (K. pneumoniae 613) [µM] | MIC (K. pneumoniae 821) [µM] | MIC (K. pneumoniae 94) [µM] | Log2FoldChange compared to vehicle injected (zebrafish larvae)
1 | CC[C@H]1OC(=O)[C@H](C)[C@@H](O[C@H]2C[C@@](C)(OC)[C@@H](O)[C@H](C)O2)[C@H](C)[C@@H](O[C@@H]2O[C@H](C)C[C@H](N(C)C)[C@H]2O)[C@](C)(O)C[C@@H](C)C(=O)[C@H](C)[C@@H](O)[C@]1(C)O [Erythromycin, erythromycin] | 0.01 | – | – | – | – | – | – | – | – | – | – | – | – | – | –
2 | CN[C@H](CC(C)C)C(=O)N[C@H]1C(=O)N[C@@H](CC(N)=O)C(=O)N[C@H]2C(=O)N[C@H]3C(=O)N[C@H](C(=O)N[C@H](C(=O)O)c4cc(O)cc(O)c4-c4cc3ccc4O)[C@H](O)c3ccc(c(Cl)c3)Oc3cc2cc(c3O[C@@H]2O[C@H](CO)[C@@H](O)[C@H](O)[C@H]2O[C@H]2C[C@](C)(N)[C@H](O)[C@H](C)O2)Oc2ccc(cc2Cl)[C@H]1O [Vancomycin, vancomycin] | – | 78.7 ± 5.3 | 78.65 ± 5.3 | 24.5 ± 8.81 | 5.98 ± 4.55 | 5.66 ± 4.15 | 9.86 ± 7.36 | 5.88 ± 3.56 | 3.03 ± 2.52 | 19 ± 4.56 | 34.7 ± 24 | 269 ± 140 | 197 ± 194 | 263 ± 180 | -0.26
